Laboratory results taken from patent US8686044B2, “Amide derivative, pest control agent containing the amide derivative, and use of the amide derivative” (Mitsui Chemicals Agro, Inc., priority 2008, dated 2014).

How the values were obtained:
Assay type in all cases: in vivo
Plutella xylostella = assay: Pesticidal test against Plutella xylostella (cabbage leaf dip); settings: foliar, 144 h, concentration 1 ppm, 2-stage larvae, examined after 6 days, 25° C., read-out: pesticidal rate
Procedure, shortened: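 Cabbage leaf pieces dipped 30 s in test solution at a predetermined concentration, air-dried, then offered to 2nd-instar larvae, five per group in duplicate. Held at 25° C; living and dead larvae counted after 6 days.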

Musca domestica = assay: Pesticidal test against Musca domestica (petri dish dry film); settings: 24 h, concentration 100 ppm, female adults, examined after 1 day, 25° C., read-out: pesticidal rate
Procedure, shortened: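 Dry film from 1 ml acetone solution of compound at a predetermined concentration, air-dried in a 9 cm petri dish; female adult flies released and dish capped. Held at 25° C; living and dead counted after 1 day. Five insects per group, two replicates.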

Laodelphax striatellus = assay: Pesticidal test against Laodelphax striatellus (rice seedling spray); settings: 144 h, concentration 100 ppm, 3-stage larvae, examined after 6 days, 25° C., read-out: pesticidal rate
Procedure, shortened: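 Rice seedlings sprayed with 2.5 ml acetone solution of compound at a predetermined concentration, air-dried, then infested with third-stage Laodelphax striatellus larvae in capped water-containing tubes at 25 °C. Living and dead insects counted after 6 days; ten larvae per group, two replicates.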

Blattella germanica = assay: Pesticidal test against Blattella germanica (petri dish dry film); settings: 24 h, concentration 100 ppm, female adults, examined after 1 day, 25° C., read-out: pesticidal rate
Description: Pesticidal Test against Blattella germanica
1 ml of an acetone solution in which a test compound had been prepared at a predetermined concentration was added dropwise to a petri dish having a diameter of 9 cm, and air-dried, and then the female adults of Blattella germanica were released and the petri dish was capped. They were left to stand in a thermostatic chamber at 25° C., and the numbers of the living pests and the dead pests were examined after 1 day. The test was carried out with five larvae per group in two replicates.

Spodoptera litura = assay: Pesticidal test against Spodoptera litura (cabbage leaf dip); settings: foliar, 144 h, concentration 1 ppm, 2-stage larvae, examined after 6 days, 25° C., read-out: pesticidal rate
Procedure, shortened: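 Cabbage leaf pieces dipped 30 seconds in compound solution at a predetermined concentration and air-dried, then offered to second-stage larvae, five per group in two replicates. Held at 25° C. Living and dead larvae counted after 6 days.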

Helicoverpa armigera = assay: Pesticidal test against Helicoverpa armigera (cabbage leaf disk dip); settings: foliar, 72 h, concentration 1 ppm, 2-stage larvae, examined after 3 days, 25° C., read-out: pesticidal rate
Procedure, shortened: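 Cabbage leaf disks were dipped for 30 s in test solution at a set concentration and air-dried. Second-instar larvae were placed one per hole and held at 25 °C, with live and dead counts taken after 3 days. Five larvae per group were tested in two replicates.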

Choristoneura magnanima = assay: Pesticidal test against Choristoneura magnanima (artificial feed dip); settings: 144 h, concentration 1 ppm, 2-stage larvae, examined after 6 days, 25° C., read-out: pesticidal rate
Procedure, shortened: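 Thin artificial feed slices dipped 30 s in compound solution at a set concentration, air-dried, then offered to 2nd-stage larvae held at 25° C. Living and dead larvae counted after 6 days; five larvae per group, two replicates.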

Adoxophyes honmai = assay: Pesticidal test against Adoxophyes honmai (artificial feed dip); settings: 144 h, concentration 1 ppm, 2-stage larvae, examined after 6 days, 25° C., read-out: pesticidal rate
Procedure, shortened: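 Thin artificial feed slices dipped 30 s in test solution at a predetermined concentration, air-dried, then offered to 2nd-stage larvae. Kept at 25° C; live and dead larvae counted after 6 days. Five larvae per group, two replicates.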

O=C(Nc1c(I)cc(C(F)(C(F)(F)F)C(F)(F)F)cc1C(F)(F)F)c1cccc(NC(=O)c2c(F)cccc2F)c1F [6-1752]
≥ 70%: pest or weed control at 1 ppm (Plutella xylostella) | pest or weed control at 100 ppm (Musca domestica) | pest or weed control at 100 ppm (Laodelphax striatellus) | pest or weed control at 100 ppm (Blattella germanica) | pest or weed control at 1 ppm (Spodoptera litura)

CN(C(=O)c1c(F)cccc1F)c1cccc(C(=O)Nc2c(Br)cc(C(F)(C(F)(F)F)C(F)(F)F)cc2Br)c1F [7-1126]
≥ 70%: pest or weed control at 1 ppm (Plutella xylostella) | pest or weed control at 100 ppm (Musca domestica) | pest or weed control at 100 ppm (Laodelphax striatellus) | pest or weed control at 100 ppm (Blattella germanica) | pest or weed control at 1 ppm (Spodoptera litura)

O=C(Nc1cccc(C(=O)Nc2c(Br)cc(C(F)(C(F)(F)F)C(F)(F)C(F)(F)F)cc2Br)c1)c1cccc(F)c1 (stereo not shown) [6-5905]
≥ 70%: pest or weed control at 1 ppm (Plutella xylostella) | pest or weed control at 100 ppm (Musca domestica) | pest or weed control at 100 ppm (Laodelphax striatellus) | pest or weed control at 100 ppm (Blattella germanica) | pest or weed control at 1 ppm (Spodoptera litura)

CN(C(=O)c1ccccc1F)c1cccc(C(=O)Nc2c(Br)cc(C(F)(C(F)(F)F)C(F)(F)C(F)(F)F)cc2C(F)(F)F)c1 (stereo not shown) [7-347]
≥ 70%: pest or weed control at 1 ppm (Plutella xylostella) | pest or weed control at 100 ppm (Blattella germanica) | pest or weed control at 1 ppm (Spodoptera litura)

O=C(Nc1cccc(C(=O)Nc2c(I)cc(C(F)(C(F)(F)F)C(F)(F)F)cc2I)c1F)c1cccnc1Cl [6-1296]
≥ 70%: pest or weed control at 1 ppm (Plutella xylostella) | pest or weed control at 100 ppm (Laodelphax striatellus) | pest or weed control at 100 ppm (Blattella germanica) | pest or weed control at 1 ppm (Spodoptera litura)

CN(C(=O)c1ccccc1F)c1cccc(C(=O)Nc2c(I)cc(C(F)(C(F)(F)F)C(F)(F)F)cc2I)c1F [7-1261]
≥ 70%: pest or weed control at 1 ppm (Plutella xylostella) | pest or weed control at 100 ppm (Laodelphax striatellus) | pest or weed control at 100 ppm (Blattella germanica) | pest or weed control at 1 ppm (Spodoptera litura)

O=C(Nc1cccc(C(=O)Nc2c(Br)cc(C(F)(C(F)(F)F)C(F)(F)F)cc2Br)c1F)c1ccccc1F [6-1105]
≥ 70%: pest or weed control at 1 ppm (Plutella xylostella) | pest or weed control at 100 ppm (Musca domestica) | pest or weed control at 100 ppm (Blattella germanica) | pest or weed control at 1 ppm (Spodoptera litura)

O=C(Nc1cccc(C(=O)Nc2c(Br)cc(C(F)(C(F)(F)F)C(F)(F)F)cc2C(F)(F)F)c1F)c1ccccc1F [6-1575]
≥ 70%: pest or weed control at 1 ppm (Plutella xylostella) | pest or weed control at 100 ppm (Musca domestica) | pest or weed control at 100 ppm (Laodelphax striatellus) | pest or weed control at 100 ppm (Blattella germanica) | pest or weed control at 1 ppm (Spodoptera litura)

N#Cc1cccc(C(=O)Nc2cccc(C(=O)Nc3c(Br)cc(C(F)(C(F)(F)F)C(F)(F)F)cc3Br)c2F)c1 [6-1124]
≥ 70%: pest or weed control at 1 ppm (Plutella xylostella) | pest or weed control at 100 ppm (Musca domestica) | pest or weed control at 100 ppm (Laodelphax striatellus) | pest or weed control at 100 ppm (Blattella germanica) | pest or weed control at 1 ppm (Spodoptera litura)

O=C(Nc1cccc(C(=O)Nc2c(I)cc(C(F)(C(F)(F)F)C(F)(F)F)cc2C(F)(F)F)c1F)c1ccc(Cl)nc1 [6-1773]
≥ 70%: pest or weed control at 1 ppm (Plutella xylostella) | pest or weed control at 100 ppm (Musca domestica) | pest or weed control at 100 ppm (Laodelphax striatellus) | pest or weed control at 100 ppm (Blattella germanica) | pest or weed control at 1 ppm (Spodoptera litura)

N#Cc1cccc(C(=O)Nc2cccc(C(=O)Nc3c(I)cc(C(F)(C(F)(F)F)C(F)(F)F)cc3I)c2F)c1 [6-1280]
≥ 70%: pest or weed control at 1 ppm (Plutella xylostella) | pest or weed control at 100 ppm (Laodelphax striatellus) | pest or weed control at 100 ppm (Blattella germanica) | pest or weed control at 1 ppm (Spodoptera litura)

CN(C(=O)c1ccc(F)cc1)c1cccc(C(=O)Nc2c(Br)cc(C(F)(C(F)(F)F)C(F)(F)C(F)(F)F)cc2C(F)(F)F)c1 (stereo not shown) [7-349]
≥ 70%: pest or weed control at 1 ppm (Plutella xylostella) | pest or weed control at 100 ppm (Musca domestica) | pest or weed control at 100 ppm (Blattella germanica) | pest or weed control at 1 ppm (Spodoptera litura)

N#Cc1ccc(C(=O)Nc2cccc(C(=O)Nc3c(Br)cc(C(F)(C(F)(F)F)C(F)(F)F)cc3Br)c2F)cc1 [6-1125]
≥ 70%: pest or weed control at 1 ppm (Plutella xylostella) | pest or weed control at 100 ppm (Musca domestica) | pest or weed control at 100 ppm (Blattella germanica) | pest or weed control at 1 ppm (Spodoptera litura)

CN(C(=O)c1ccc(C#N)cc1)c1cccc(C(=O)Nc2c(Br)cc(C(F)(C(F)(F)F)C(F)(F)C(F)(F)F)cc2C(F)(F)F)c1 (stereo not shown) [7-367]
≥ 70%: pest or weed control at 1 ppm (Plutella xylostella) | pest or weed control at 100 ppm (Musca domestica) | pest or weed control at 100 ppm (Blattella germanica) | pest or weed control at 1 ppm (Spodoptera litura)

N#Cc1cccc(C(=O)Nc2cccc(C(=O)Nc3c(Br)cc(C(F)(C(F)(F)F)C(F)(F)C(F)(F)F)cc3C(F)(F)F)c2F)c1 (stereo not shown) [6-1672]
≥ 70%: pest or weed control at 1 ppm (Plutella xylostella) | pest or weed control at 1 ppm (Helicoverpa armigera) | pest or weed control at 100 ppm (Musca domestica) | pest or weed control at 100 ppm (Laodelphax striatellus) | pest or weed control at 1 ppm (Choristoneura magnanima) | pest or weed control at 1 ppm (Spodoptera litura) | pest or weed control at 1 ppm (Adoxophyes honmai)

O=C(Nc1cccc(C(=O)Nc2c(Br)cc(C(F)(C(F)(F)F)C(F)(F)F)cc2C(F)(F)F)c1F)c1cccnc1Cl [6-1610]
≥ 70%: pest or weed control at 1 ppm (Plutella xylostella) | pest or weed control at 100 ppm (Laodelphax striatellus) | pest or weed control at 100 ppm (Blattella germanica) | pest or weed control at 1 ppm (Spodoptera litura)

N#Cc1ccc(C(=O)Nc2c(Br)cc(C(F)(C(F)(F)F)C(F)(F)F)cc2C(F)(F)F)c(F)c1NC(=O)c1ccccc1 [1-1925]
≥ 70%: pest or weed control at 1 ppm (Plutella xylostella) | pest or weed control at 100 ppm (Musca domestica) | pest or weed control at 100 ppm (Blattella germanica) | pest or weed control at 1 ppm (Spodoptera litura)

CN(C(=O)c1cccc(F)c1)c1cccc(C(=O)Nc2c(Br)cc(C(F)(C(F)(F)F)C(F)(F)C(F)(F)F)cc2C(F)(F)F)c1 (stereo not shown) [7-348]
≥ 70%: pest or weed control at 1 ppm (Plutella xylostella) | pest or weed control at 1 ppm (Helicoverpa armigera) | pest or weed control at 100 ppm (Musca domestica) | pest or weed control at 100 ppm (Laodelphax striatellus) | pest or weed control at 1 ppm (Choristoneura magnanima) | pest or weed control at 1 ppm (Spodoptera litura) | pest or weed control at 1 ppm (Adoxophyes honmai)

CN(C(=O)c1ccc(F)cc1)c1cccc(C(=O)Nc2c(I)cc(C(F)(C(F)(F)F)C(F)(F)C(F)(F)F)cc2C(F)(F)F)c1F (stereo not shown) [7-1811]
≥ 70%: pest or weed control at 1 ppm (Plutella xylostella) | pest or weed control at 1 ppm (Helicoverpa armigera) | pest or weed control at 100 ppm (Musca domestica) | pest or weed control at 100 ppm (Laodelphax striatellus) | pest or weed control at 1 ppm (Choristoneura magnanima) | pest or weed control at 1 ppm (Spodoptera litura) | pest or weed control at 1 ppm (Adoxophyes honmai)

CN(C(=O)c1cccnc1Br)c1cccc(C(=O)Nc2c(Br)cc(C(F)(C(F)(F)F)C(F)(F)F)cc2C(F)(F)F)c1 [7-305]
≥ 70%: pest or weed control at 1 ppm (Plutella xylostella) | pest or weed control at 100 ppm (Laodelphax striatellus) | pest or weed control at 100 ppm (Blattella germanica) | pest or weed control at 1 ppm (Spodoptera litura)
